Results taken from ChEMBL document CHEMBL1157995, “New acetylenic enol ethers of glycerol from the sponge Petrosia sp” (1999).
Values after ≈ are worked out from the molar mass of the structure shown.

Tested on: K562
Experiment: Cytotoxicity against human K-562 cells after 5 days by MTT assay
Format: functional
Conditions: K562, 120 h, read-out: LC50 (the source's name)

CC(C)CCCCCCC#C/C=C\OC[C@@H](O)CO [PETRORASPAILYNE B3]
CC50: > 100 mg/L

CC(C)CCCC/C=C\C#C/C=C\OC[C@@H](O)CO [PETRORASPAILYNE A2]
CC50: 57 mg/L (≈ 214 µM)

CCC(C)CCCCC/C=C\C#C/C=C\OC[C@@H](O)CO (stereo partly specified) [PETRORASPAILYNE A3]
CC50: 29 mg/L (≈ 98.5 µM)

CCC(C)CCCCCC#C/C=C\OC[C@@H](O)CO (stereo partly specified) [PETRORASPAILYNE B2]
CC50: > 100 mg/L

CCCCCCCCC#C/C=C\OC[C@@H](O)CO [PETRORASPAILYNE B1]
CC50: > 100 mg/L

CCCCCC/C=C\C#C/C=C\OC[C@@H](O)CO [PETRORASPAILYNE A1]
CC50: 9.2 mg/L (≈ 36.5 µM)
